Each structure is given as a SMILES string.

calpain 1, sequence (P07384 whole entry): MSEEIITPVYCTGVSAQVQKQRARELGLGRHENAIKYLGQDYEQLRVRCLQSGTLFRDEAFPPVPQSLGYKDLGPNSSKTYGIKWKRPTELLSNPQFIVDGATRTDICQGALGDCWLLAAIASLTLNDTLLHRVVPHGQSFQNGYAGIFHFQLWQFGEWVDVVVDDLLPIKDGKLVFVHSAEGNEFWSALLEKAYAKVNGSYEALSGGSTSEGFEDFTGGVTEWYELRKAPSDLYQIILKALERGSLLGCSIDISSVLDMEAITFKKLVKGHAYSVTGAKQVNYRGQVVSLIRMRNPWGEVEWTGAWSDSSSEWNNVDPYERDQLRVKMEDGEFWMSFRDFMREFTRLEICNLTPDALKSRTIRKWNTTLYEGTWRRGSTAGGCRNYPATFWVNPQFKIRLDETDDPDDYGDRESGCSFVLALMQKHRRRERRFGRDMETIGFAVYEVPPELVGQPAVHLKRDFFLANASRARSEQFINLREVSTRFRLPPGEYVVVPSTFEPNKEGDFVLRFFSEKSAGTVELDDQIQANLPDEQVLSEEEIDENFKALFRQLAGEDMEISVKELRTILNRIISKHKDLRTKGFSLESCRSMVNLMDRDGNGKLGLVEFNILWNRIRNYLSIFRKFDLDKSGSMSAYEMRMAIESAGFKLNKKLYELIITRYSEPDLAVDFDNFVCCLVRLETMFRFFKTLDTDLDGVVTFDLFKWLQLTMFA
calpain 1, sequence (P04632 whole entry partner): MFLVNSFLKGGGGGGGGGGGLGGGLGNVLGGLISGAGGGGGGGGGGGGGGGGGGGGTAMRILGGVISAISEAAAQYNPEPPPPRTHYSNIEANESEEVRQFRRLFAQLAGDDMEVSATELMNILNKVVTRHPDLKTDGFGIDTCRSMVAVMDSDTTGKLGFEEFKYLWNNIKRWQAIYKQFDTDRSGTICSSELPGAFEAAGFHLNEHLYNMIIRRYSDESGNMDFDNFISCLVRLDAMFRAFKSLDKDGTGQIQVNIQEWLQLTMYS

The experiment concerns the target calpain 1 (Homo sapiens (Human), UniProt P07384). The experiment can be described thus: Assay for the determination of the capacity to inhibit calpain 1 (Calpain-Glo Protease kit). As to conditions: Calpain-Glo luminescence; 16 ng/mL calpain 1; at least 6 concentrations; read-out: Calpain 1 inhibitory activity IC50. The experiment is classed as biochemical. As for the experimental part: Assay for the Determination of the Capacity to Inhibit Calpain 1
Activity of Calpain 1 was measured by using Calpain-Glo Protease kit from Promega. Assays were run in 384-well black plates with clear bottom. 5 μl of compounds in a 10 mM HEPES and 1 mM EDTA aqueous solution were incubated with 15 μL of a solution of 16 ng/mL calpain 1 (Sigma Aldrich) for 2 minutes and then 20 μL of Calpain-Glo™ Reagent provided in the kit were added to each well. Luminiscence elicited by calpain 1-induced substrate lysis was measured in a Hamamatsu FDSS 7000 reader and data was calculated from the maximal luminescence peak. Calpain inhibition was calculated from the formula: % inhibition=[…]; wherein LT is the luminescence observed in the tested compound, LB is blank luminescence obtained from a well without calpain 1 and LC is the luminescence observed in control wells including calpain1 in the absence of inhibitor.
All compounds were tested using, at least, 6 concentrations to allow calculate the IC50 (concentration that inhibits the activity of calpain 1 by 50%).
Calpastatin and ALLN were included as control inhibitors in all the assays.
A word on the IC50: it is the concentration that gives 50% inhibition. For the molecule `CONC(=O)C(=O)C(Cc1ccccc1)NC(=O)[C@H](CC1CC1)NC(=O)c1cccc(OC)c1` (stereo partly drawn) [Example 4, N-((S)-3-cyclopropyl-1-((4-(methoxyamino)-3,4-dioxo-1-phenylbutan-2-yl)amino)-1-oxopropan-2-yl)-3-methoxybenzamide], the IC50 turned out to be 7.1 nM.
The same measure for `COc1ccc(C(=O)N[C@@H](CC(C)C)C(=O)N[C@@H](Cc2ccccc2)C(=O)C(=O)NC2CC2)cc1` [Comp. Example 5, N-((S)-1-(((S)-4-(cyclopropylamino)-3,4-dioxo-1-phenylbutan-2-yl)amino)-4-methyl-1-oxopentan-2-yl)-4-methoxybenzamide, reference compound]: 255 nM; for `COc1ccccc1C(=O)N[C@@H](CC(C)C)C(=O)N[C@@H](Cc1ccccc1)C(=O)C(=O)NC1CC1` [Comp. Example 6, N-((S)-1-(((S)-4-(cyclopropylamino)-3,4-dioxo-1-phenylbutan-2-yl)amino)-4-methyl-1-oxopentan-2-yl)-2-methoxybenzamide, reference compound]: 110 nM.
Then `COc1cccc(C(=O)N[C@@H](CC(C)C)C(=O)N[C@@H](Cc2ccccc2)C(=O)C(=O)NC2CC2)c1` [Example 1, N-((S)-1-(((S)-4-(cyclopropylamino)-3,4-dioxo-1-phenylbutan-2-yl)amino)-4-methyl-1-oxopentan-2-yl)-3-methoxybenzamide], with 0.03 nM; and `COc1cccc(C(=O)N[C@H](C(=O)NC(Cc2ccccc2)C(=O)C(=O)NC2CC2)C(C)C)c1` (stereo partly drawn) [Example 2, N-((S)-1-((4-(cyclopropylamino)-3,4-dioxo-1-phenylbutan-2-yl)amino)-3-methyl-1-oxobutan-2-yl)-3-methoxybenzamide], with 2.2 nM.
Then `COc1cccc(C(=O)N[C@@H](CC2CC2)C(=O)NC(Cc2ccccc2)C(=O)C(=O)NC2CC2)c1` (stereo partly drawn) [Example 3, N-((S)-3-cyclopropyl-1-((4-(cyclopropylamino)-3,4-dioxo-1-phenylbutan-2-yl)amino)-1-oxopropan-2-yl)-3-methoxybenzamide], with 0.008 nM.

The values above are taken from US11242312B2, “Dipeptidyl ketoamide meta-methoxyphenyl derivatives and uses thereof” (LANDSTEINER GENMED, S.L., priority 2018, dated 2022).
